According to the supplement of paper PMC10307832:

What follows are cell lines tested with CC1=CC(=CC=C1)NC2=NC(=CS2)C3=CC=NC=C3 + CC1(C)CCC(c2ccc(Cl)cc2)=C(CN2CCN(c3ccc(C(=O)NS(=O)(=O)c4ccc(N[C@H](CCN5CCOCC5)CSc5ccccc5)c(S(=O)(=O)C(F)(F)F)c4)cc3)CC2)C1 [Navitoclax] (partner 0.5 µM) (assay: relative viability (nuclei count vs DMSO), 5 days (fraction); higher = more cells survive). Settings: first compound 8 µM.
Outline: (§1)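 Values are medians from duplicate plates. Each reflects relative viability, defined as the nuclei count of treated wells over that of vehicle wells. Lung cancer cell lines in 1536-well plates were pin-tool dosed one day after seeding with one drug alone or with a fixed anchor-drug dose plus five library-drug doses (not always all listed) in √10 steps, then fixed, stained and imaged at 4× after 5 days.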

Row | Cell Line | relative viability
1 | CAL-12T | 1.24

What follows are cell lines tested with Cc1ccc(NC(=O)c2ccc(CN3CCN(C)CC3)cc2)cc1Nc1nc(-c2cccnc2)cs1 [Masitinib] + Nc1nc2[nH]cc(CCc3ccc(C(=O)N[C@@H](CCC(=O)O)C(=O)O)cc3)c2c(=O)[nH]1 [Pemetrexed] (partner 0.2 µM) in the same assay as above. Settings: first compound 0.01 µM.
Outline: as §1

Row | Cell Line | relative viability
2 | H3255 | 0.57
3 | COR-L23 | 0.214
4 | COR-L 105 | 1.04
5 | LOU-NH91 | 0.363
6 | ChaGo-K-1 | 0.251
7 | NCI-H3122 | 0.175
8 | HOP-62 | 0.286
9 | LXF-289 | 0.773
10 | BEN | 0.886
11 | HARA | 0.217
12 | HCC-78 | 0.933
13 | NCI-H441 | 0.261
14 | LCLC-97TM1 | 0.168
15 | NCI-H2023 | 0.228
16 | A-427 | 0.758
17 | NCI-H460 | 0.0557
18 | NCI-H1755 | 0.357
19 | NCI-H520 | 0.652
20 | NCI-H2405 | 0.962
21 | SW 1573 | 0.808
22 | NCI-H1395 | 1.02
23 | 201T | 0.309
24 | NCI-H1975 | 0.305
25 | HCC-827 | 0.264
26 | NCI-H2347 | 0.425
27 | NCI-H1355 | 0.9
28 | CAL-12T | 1.11

Same assay, conditions: first compound 0.03162 µM

Row | Cell Line | relative viability
29 | H3255 | 0.59
30 | COR-L23 | 0.227
31 | COR-L 105 | 1.09
32 | LOU-NH91 | 0.312
33 | ChaGo-K-1 | 0.274
34 | NCI-H3122 | 0.196
35 | HOP-62 | 0.325
36 | LXF-289 | 0.973
37 | BEN | 0.713
38 | HARA | 0.324
39 | HCC-78 | 0.877
40 | NCI-H441 | 0.273
41 | LCLC-97TM1 | 0.154
42 | NCI-H2023 | 0.201
43 | A-427 | 0.986
44 | NCI-H460 | 0.0629
45 | NCI-H1755 | 0.411
46 | NCI-H520 | 0.851
47 | NCI-H2405 | 1.05
48 | SW 1573 | 0.942
49 | NCI-H1395 | 0.872
50 | 201T | 0.343
51 | NCI-H1975 | 0.3
52 | HCC-827 | 0.278
53 | NCI-H2347 | 0.406
54 | NCI-H1355 | 0.92
55 | CAL-12T | 1.15

Same assay, conditions: first compound 0.1 µM

Row | Cell Line | relative viability
56 | H3255 | 0.583
57 | COR-L23 | 0.194
58 | COR-L 105 | 1.1
59 | LOU-NH91 | 0.402
60 | ChaGo-K-1 | 0.258
61 | NCI-H3122 | 0.193
62 | HOP-62 | 0.323
63 | LXF-289 | 0.917
64 | BEN | 0.897
65 | HARA | 0.24
66 | HCC-78 | 0.887
67 | NCI-H441 | 0.244
68 | LCLC-97TM1 | 0.169
69 | NCI-H2023 | 0.207
70 | A-427 | 0.857
71 | NCI-H460 | 0.0594
72 | NCI-H1755 | 0.427
73 | NCI-H520 | 0.731
74 | NCI-H2405 | 0.98
75 | SW 1573 | 0.854
76 | NCI-H1395 | 1.02
77 | 201T | 0.319
78 | NCI-H1975 | 0.287
79 | HCC-827 | 0.255
80 | NCI-H2347 | 0.385
81 | NCI-H1355 | 1.1
82 | CAL-12T | 1.29

Same assay, conditions: first compound 0.3162 µM

Row | Cell Line | relative viability
83 | H3255 | 0.54
84 | COR-L23 | 0.205
85 | COR-L 105 | 0.989
86 | LOU-NH91 | 0.365
87 | ChaGo-K-1 | 0.248
88 | NCI-H3122 | 0.201
89 | HOP-62 | 0.462
90 | LXF-289 | 0.971
91 | BEN | 0.704
92 | HCC-78 | 0.987
93 | NCI-H441 | 0.261
94 | LCLC-97TM1 | 0.173
95 | NCI-H2023 | 0.244
96 | A-427 | 1.03
97 | NCI-H460 | 0.0647
98 | NCI-H1755 | 0.446
99 | NCI-H520 | 0.77
100 | NCI-H2405 | 1.04
101 | SW 1573 | 0.873
102 | NCI-H1395 | 0.965
103 | 201T | 0.347
104 | NCI-H1975 | 0.291
105 | HCC-827 | 0.185
106 | NCI-H2347 | 0.446
107 | NCI-H1355 | 0.853
108 | CAL-12T | 1.4

Same assay, conditions: first compound 1 µM

Row | Cell Line | relative viability
109 | H3255 | 0.573
110 | COR-L23 | 0.196
111 | COR-L 105 | 0.997
112 | LOU-NH91 | 0.376
113 | ChaGo-K-1 | 0.251
114 | NCI-H3122 | 0.191
115 | HOP-62 | 0.404
116 | LXF-289 | 0.943
117 | BEN | 0.777
118 | HARA | 0.279
119 | HCC-78 | 0.893
120 | NCI-H441 | 0.256
121 | LCLC-97TM1 | 0.168
122 | NCI-H2023 | 0.215
123 | A-427 | 0.771
124 | NCI-H460 | 0.0579
125 | NCI-H1755 | 0.463
126 | NCI-H520 | 0.857
127 | NCI-H2405 | 0.704
128 | SW 1573 | 0.92
129 | NCI-H1395 | 0.717
130 | 201T | 0.345
131 | NCI-H1975 | 0.303
132 | HCC-827 | 0.257
133 | NCI-H2347 | 0.417
134 | NCI-H1355 | 1.08
135 | CAL-12T | 1.28

What follows are cell lines tested with Cc1ccc(NC(=O)c2ccc(CN3CCN(C)CC3)cc2)cc1Nc1nc(-c2cccnc2)cs1 [Masitinib] + COc1cc2c(Oc3ccc(NC(=O)C4(C(=O)Nc5ccc(F)cc5)CC4)cc3F)ccnc2cc1OCCCN1CCOCC1 [Foretinib] (partner 0.25 µM) in the same assay as above. Settings: first compound 0.01 µM.
Outline: as §1

Row | Cell Line | relative viability
136 | H3255 | 0.745
137 | COR-L23 | 0.935
138 | COR-L 105 | 1.01
139 | LOU-NH91 | 0.886
140 | ChaGo-K-1 | 0.961
141 | NCI-H3122 | 0.89
142 | HOP-62 | 1.02
143 | LXF-289 | 0.792
144 | BEN | 0.702
145 | HCC-78 | 0.554
146 | NCI-H441 | 0.909
147 | NCI-H2023 | 0.786
148 | NCI-H460 | 1.02
149 | NCI-H520 | 0.899
150 | NCI-H2405 | 0.943
151 | SW 1573 | 0.765
152 | NCI-H1395 | 0.969
153 | 201T | 0.89
154 | NCI-H1975 | 1.02
155 | HCC-827 | 1.03
156 | NCI-H2347 | 1.02
157 | NCI-H1355 | 0.914
158 | CAL-12T | 1.05

Same assay, conditions: first compound 0.03162 µM

Row | Cell Line | relative viability
159 | H3255 | 0.922
160 | COR-L23 | 1.05
161 | COR-L 105 | 0.906
162 | LOU-NH91 | 0.908
163 | ChaGo-K-1 | 0.863
164 | NCI-H3122 | 1
165 | HOP-62 | 1.04
166 | LXF-289 | 0.965
167 | HARA | 0.795
168 | HCC-78 | 0.551
169 | NCI-H441 | 0.976
170 | LCLC-97TM1 | 0.966
171 | NCI-H2023 | 0.721
172 | A-427 | 1.13
173 | NCI-H460 | 1.08
174 | NCI-H1755 | 0.927
175 | NCI-H520 | 0.937
176 | NCI-H2405 | 1.02
177 | SW 1573 | 0.974
178 | NCI-H1395 | 1
179 | 201T | 1.21
180 | NCI-H1975 | 0.96
181 | HCC-827 | 1.05
182 | NCI-H2347 | 0.847
183 | NCI-H1355 | 0.797
184 | CAL-12T | 1.16

Same assay, conditions: first compound 0.1 µM

Row | Cell Line | relative viability
185 | H3255 | 0.648
186 | COR-L23 | 1.1
187 | COR-L 105 | 1.06
188 | LOU-NH91 | 0.958
189 | ChaGo-K-1 | 0.924
190 | NCI-H3122 | 1.05
191 | HOP-62 | 1.22
192 | LXF-289 | 0.951
193 | BEN | 0.745
194 | HARA | 0.913
195 | HCC-78 | 0.548
196 | NCI-H441 | 1.12
197 | LCLC-97TM1 | 0.941
198 | NCI-H2023 | 0.745
199 | NCI-H460 | 1.06
200 | NCI-H1755 | 0.975
201 | NCI-H520 | 0.987
202 | NCI-H2405 | 0.98
203 | SW 1573 | 0.97
204 | NCI-H1395 | 1.06
205 | 201T | 1.02
206 | NCI-H1975 | 0.924
207 | HCC-827 | 1.06
208 | NCI-H2347 | 1.09
209 | NCI-H1355 | 1.04
210 | CAL-12T | 1.15

Same assay, conditions: first compound 0.3162 µM

Row | Cell Line | relative viability
211 | H3255 | 0.934
212 | COR-L23 | 1.02
213 | COR-L 105 | 0.901
214 | LOU-NH91 | 0.858
215 | ChaGo-K-1 | 0.967
216 | NCI-H3122 | 1.01
217 | HOP-62 | 1.17
218 | LXF-289 | 1.01
219 | BEN | 0.705
220 | HARA | 0.437
221 | HCC-78 | 0.521
222 | NCI-H441 | 1.48
223 | LCLC-97TM1 | 1.08
224 | NCI-H2023 | 0.836
225 | A-427 | 1.01
226 | NCI-H460 | 0.864
227 | NCI-H1755 | 0.897
228 | NCI-H520 | 0.695
229 | NCI-H2405 | 0.963
230 | SW 1573 | 0.784
231 | NCI-H1395 | 0.754
232 | HCC-827 | 1
233 | NCI-H2347 | 0.787
234 | NCI-H1355 | 0.758
235 | CAL-12T | 1.07

Same assay, conditions: first compound 1 µM

Row | Cell Line | relative viability
236 | H3255 | 0.748
237 | COR-L23 | 0.92
238 | COR-L 105 | 0.726
239 | LOU-NH91 | 0.897
240 | ChaGo-K-1 | 0.907
241 | NCI-H3122 | 0.887
242 | HOP-62 | 1.14
243 | LXF-289 | 0.988
244 | BEN | 0.461
245 | HARA | 0.819
246 | HCC-78 | 0.451
247 | NCI-H441 | 0.691
248 | LCLC-97TM1 | 0.874
249 | NCI-H2023 | 0.73
250 | A-427 | 1
251 | NCI-H460 | 0.977
252 | NCI-H1755 | 0.828
253 | NCI-H520 | 0.762
254 | NCI-H2405 | 1.05
255 | SW 1573 | 0.865
256 | NCI-H1395 | 0.915
257 | 201T | 1.11
258 | NCI-H1975 | 0.998
259 | HCC-827 | 1.06
260 | NCI-H2347 | 1.15
261 | NCI-H1355 | 0.968
262 | CAL-12T | 0.933
